pIC50: −log10 of the molar value.
Target: Cyclin-dependent kinase 8 (CDK8) (Homo sapiens, UniProt P49336)
Test: LanthaScreen Eu kinase binding assay (TR-FRET displacement of Tracer […]), dose-response; […] inhibition at […] in 60-kinase panel

Cyclin-dependent kinase 8 (CDK8), sequence (P49336 whole entry): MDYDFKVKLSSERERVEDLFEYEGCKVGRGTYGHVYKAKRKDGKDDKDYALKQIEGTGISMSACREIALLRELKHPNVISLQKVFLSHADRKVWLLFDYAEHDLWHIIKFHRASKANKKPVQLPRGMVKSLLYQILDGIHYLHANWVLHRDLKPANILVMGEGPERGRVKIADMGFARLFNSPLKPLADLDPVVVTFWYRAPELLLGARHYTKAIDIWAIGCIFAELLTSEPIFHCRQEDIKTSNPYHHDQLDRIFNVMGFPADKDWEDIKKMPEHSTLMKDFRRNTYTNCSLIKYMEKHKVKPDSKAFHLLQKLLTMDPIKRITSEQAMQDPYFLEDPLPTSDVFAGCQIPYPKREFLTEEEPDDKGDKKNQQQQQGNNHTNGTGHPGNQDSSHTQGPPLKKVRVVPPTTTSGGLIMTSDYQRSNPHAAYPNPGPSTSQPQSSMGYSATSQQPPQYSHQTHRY
Cyclin-dependent kinase 8 (CDK8), sequence (P24863 whole entry partner): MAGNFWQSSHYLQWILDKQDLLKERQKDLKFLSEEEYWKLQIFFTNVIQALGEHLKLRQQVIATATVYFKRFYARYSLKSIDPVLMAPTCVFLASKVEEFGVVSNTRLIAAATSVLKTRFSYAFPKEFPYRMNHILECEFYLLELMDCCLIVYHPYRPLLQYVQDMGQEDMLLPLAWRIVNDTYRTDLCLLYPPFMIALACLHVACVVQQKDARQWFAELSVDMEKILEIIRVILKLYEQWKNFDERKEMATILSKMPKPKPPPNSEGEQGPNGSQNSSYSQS

O=C(Cc1nnc(-c2ccc3ncccc3c2)o1)NCc1ccc(F)cc1 [P162-0948]
pIC50: 7.30

— publication PMC11733953, “Identification of a Potent CDK8 Inhibitor Using Structure-Based Virtual Screening” (Journal of Chemical Information and Modeling, 2024)
